Results on 12 molecules are retold here after ChEMBL document CHEMBL5241076, “Natural products and analogs as preventive agents for metabolic syndrome via peroxisome proliferator-activated receptors: An overview” (Eur J Med Chem, 2021).

Molecules are shown by their SMILES.

Series [1] has as its target T1, Peroxisome proliferator-activated receptor gamma (Homo sapiens, UniProt P37231).
T1 sequence (P37231 whole entry): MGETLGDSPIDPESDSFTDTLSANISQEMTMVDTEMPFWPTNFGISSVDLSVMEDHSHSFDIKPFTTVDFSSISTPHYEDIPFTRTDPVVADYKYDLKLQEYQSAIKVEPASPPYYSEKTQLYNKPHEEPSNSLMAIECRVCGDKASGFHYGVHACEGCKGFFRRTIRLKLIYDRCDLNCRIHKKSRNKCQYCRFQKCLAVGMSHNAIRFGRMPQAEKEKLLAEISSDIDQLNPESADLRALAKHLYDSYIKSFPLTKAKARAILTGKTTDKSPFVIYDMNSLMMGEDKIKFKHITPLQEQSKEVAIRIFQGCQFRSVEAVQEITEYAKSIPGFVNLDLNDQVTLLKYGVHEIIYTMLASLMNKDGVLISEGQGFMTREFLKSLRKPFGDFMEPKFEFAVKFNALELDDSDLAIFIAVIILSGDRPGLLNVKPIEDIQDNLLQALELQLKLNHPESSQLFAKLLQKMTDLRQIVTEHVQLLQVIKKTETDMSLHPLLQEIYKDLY
As to the kind of experiment: Binding affinity to PPARgamma (unknown origin).

Series [2] can be described thus: Half life in Syrian hamster at 100 mg/kg, po. It counts as ADME, organism-based, Mesocricetus auratus. To be noted: in vivo.
The nature of series [3]: Cmax in Syrian hamster at 100 mg/kg, po. Also noted: dose 100 mg/kg, route po. It counts as ADME, organism-based, Mesocricetus auratus. To be noted: in vivo.
In series [4] the target is T2, Peroxisome proliferator-activated receptor gamma (Homo sapiens) (UniProt P37231).
T2 sequence (whole entry): T1 sequence (P37231 whole entry)
As to the kind of experiment: Agonist activity at PPARgamma (unknown origin) at 0.1 to 25 uM relative to control. To be noted: dose 0.1-25 µM.

The target in series [5] is T3, Peroxisome proliferator-activated receptor alpha (Homo sapiens) (UniProt Q07869).
T3 sequence (whole entry): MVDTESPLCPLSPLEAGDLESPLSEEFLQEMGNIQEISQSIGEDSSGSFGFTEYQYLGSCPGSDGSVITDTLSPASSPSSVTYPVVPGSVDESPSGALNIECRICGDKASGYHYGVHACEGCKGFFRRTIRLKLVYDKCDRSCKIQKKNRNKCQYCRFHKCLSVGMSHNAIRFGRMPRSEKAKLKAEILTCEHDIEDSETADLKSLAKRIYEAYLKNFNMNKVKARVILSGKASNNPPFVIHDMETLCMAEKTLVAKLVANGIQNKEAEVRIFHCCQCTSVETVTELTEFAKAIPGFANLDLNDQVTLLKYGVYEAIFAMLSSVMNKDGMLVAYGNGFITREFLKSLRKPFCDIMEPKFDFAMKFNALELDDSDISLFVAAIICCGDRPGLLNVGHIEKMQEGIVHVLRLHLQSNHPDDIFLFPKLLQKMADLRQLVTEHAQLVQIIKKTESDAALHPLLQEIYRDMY
Nature of the series: Agonist activity at PPARalpha (unknown origin) at 240 uM relative to control.

The target of series [6] is T2, Peroxisome proliferator-activated receptor gamma (Homo sapiens). As to the kind of experiment: Agonist activity at PPARgamma (unknown origin) at 80 uM relative to control. Particulars: filed as agonist.
The target is the same in series [7]. Nature of the series: Partial agonist activity at PPARgamma (unknown origin) relative to control.
Series [8] in a line: Cmax in mouse at 100 mg/kg, PO. Format: ADME, organism-based. Also noted: dose 100 mg/kg, route po. Particulars: in vivo.
Series [9] can be described thus: Half life in mouse at 100 mg/kg, po. It counts as ADME, organism-based. To be noted: in vivo.
Series [10] deals with T3, Peroxisome proliferator-activated receptor alpha (Homo sapiens). Nature of the series: Agonist activity at PPARalpha (unknown origin) relative to control. Particulars: filed as agonist.
Series [11] addresses T4, Peroxisome proliferator-activated receptor alpha (Homo sapiens, UniProt Q07869).
T4 sequence (Q07869 whole entry): T3 sequence (whole entry)
Nature of the series: Agonist activity at PPARalpha (unknown origin).

The target in series [12] is T4, Peroxisome proliferator-activated receptor alpha. As to the kind of experiment: Binding affinity to PPARalpha (unknown origin).
The target in series [13] is T5, Peroxisome proliferator-activated receptor delta (Homo sapiens, UniProt Q03181).
T5 sequence (Q03181 whole entry): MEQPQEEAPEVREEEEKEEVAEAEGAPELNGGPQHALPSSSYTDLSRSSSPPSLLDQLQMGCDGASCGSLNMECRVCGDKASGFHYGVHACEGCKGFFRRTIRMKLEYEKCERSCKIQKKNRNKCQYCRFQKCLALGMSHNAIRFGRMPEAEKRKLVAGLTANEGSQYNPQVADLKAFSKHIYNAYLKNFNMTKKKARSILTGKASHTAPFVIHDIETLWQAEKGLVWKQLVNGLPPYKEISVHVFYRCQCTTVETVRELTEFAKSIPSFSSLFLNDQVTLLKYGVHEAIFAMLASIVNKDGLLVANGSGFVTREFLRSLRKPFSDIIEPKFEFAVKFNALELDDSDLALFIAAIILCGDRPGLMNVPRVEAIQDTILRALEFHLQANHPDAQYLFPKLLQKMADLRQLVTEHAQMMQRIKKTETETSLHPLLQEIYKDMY
As to the kind of experiment: Agonist activity at PPARdelta (unknown origin).

Series [14] concerns the target T3, Peroxisome proliferator-activated receptor alpha (Homo sapiens). As to the kind of experiment: Agonist activity at PPARalpha (unknown origin) at 20 uM relative to control. Particulars: filed as agonist.
Series [15] has as its target T6, Peroxisome proliferator-activated receptor delta (Homo sapiens) (UniProt Q03181).
T6 sequence (whole entry): T5 sequence (Q03181 whole entry)
Nature of the series: Agonist activity at PPARdelta (unknown origin) at 20 uM relative to control. Particulars: filed as agonist.

By Ki is commonly meant the equilibrium dissociation constant of an inhibitor or competing ligand from its target. A lower Ki goes with a stronger hold on the target. Molecule `CC(C)=CCC[C@@](C)(O)[C@H]1CC[C@]2(C)[C@@H]1[C@H](O)C[C@@H]1[C@@]3(C)CC[C@H](O)C(C)(C)[C@@H]3[C@@H](O)C[C@]12C` returned a Ki in [1] of 54.2 µM. The term half-life denotes the time in which the quantity being followed falls by half. The Cmax is the highest concentration seen after dosing. Molecule `COc1cc(/C=C/c2cc(/C=C/c3ccc(O)c(OC)c3)n(-c3ccc(Cl)c(Cl)c3)n2)ccc1O` gave a half-life in series [2] of 2.8 h. Also, in series [3], the Cmax was 1390 ng/mL.

For the molecule `CCCCCc1cc2c(c(O)c1C(=O)O)[C@@H]1C=C(C)CC[C@H]1C(C)(C)O2`, the Activity in series [4] turned out to be 17%.

In the case of `O=C1C[C@@H](c2ccc(O)cc2)Oc2cc(O)cc(O)c21`, the Activity in [5] turned out to be 24%; in series [6] it was 57%.

`O=c1c(O)c(-c2ccc(O)c(O)c2)oc2cc(O)cc(O)c12`: in series [7], the Activity is 20%. In turn, `COc1cc(CCc2ccccc2)c(C(=O)O)c(O)c1CC=C(C)C` [AMORFRUTIN A] came in with a peak concentration (Cmax) in [8] of 42400 ng/mL. The molecule further gave a half-life in series [9] of 2 h. Usually EC50 stands for the concentration at which the effect is half-maximal. In turn, `COc1ccc2cc3[n+](cc2c1OC)CCc1cc2c(cc1-3)OCO2` [BERBERINE] registered an Activity in [10] of 102%. The EC50 stood at 0.58 µM in series [11] and 14 µM in [13]. The molecule also gave a Ki in series [12] of 0.73 µM. In [11], `C=C1CC/C=C(\C)CC[C@@H]2[C@@H]1CC2(C)C` [BETA-CARYOPHYLLENE] gave a concentration for a half-maximal effect (EC50) of 9.58 µM.

For `COc1cc(/C=C/C(=O)CC(=O)/C=C/c2ccc(O)c(OC)c2)ccc1O` [CURCUMIN], in series [3], the peak level (Cmax) was 2.35 ng/mL.

On to `O=c1c(O)c(-c2ccc(O)cc2)oc2cc(O)cc(O)c12` [KAEMPFEROL], for which the Activity came out at 433% in [14], 45% in series [7] (filed as partial agonist) and 155% in series [15]. The EC50 in series [11] is 15.5 µM; in [13], 341 µM. Turning to `C=CCc1ccc(O)c(-c2cc(CC=C)ccc2O)c1` [MAGNOLOL], the concentration giving a half-maximal response (EC50) in [13] is 11.4 µM.

As for `Cc1coc2c1C(=O)C(=O)c1c-2ccc2c1CCCC2(C)C` [TANSHINONE IIA], the inhibitory constant (Ki) in [1] was 2.56 µM.
